In US6455516B1, “Method and compounds for use in the treatment of steroid induced states of the central nervous system” (priority 1998, dated 2002):
Entries after “also recorded” stand apart in the source; their conditions may differ.

How the values were obtained:
[1] = system: slices from hippocampal CA1 region; assay: Hippocampus slice in vitro model: induced population spike (POPSP) over the synapse in area CA1; type: cell-based, rat; conditions: for Blocking of the effect of 3alpha-hydroxy-5alpha-pregnan-20-one on the signal/POPSP / Blocking of the effect of 3alpha-hydroxy-5beta-pregnan-20-one on the signal/POPSP: given simultaneously, equimolar dose in the nM range; for Effect on the signal transmitted over the synapse / amplitude of the POPSP: steroid alone
Source text: In another preliminary study, the hippocampus slice model in the female rat of the luteal phase was used. This corresponds to the phase in humans when most of CNS effects are noticed in women with epilepsy and premenstrual syndrome.
In the hippocampus slice in vitro model the effect of steroids on an electrical signal over the synapse in the area CA1 was investigated. The stimulation is on one side of the synapse and a measurement of the response is made on the other side. A small droplet containing the steroid can be placed on top of the synapse and thus influence the synaptic transmission. Secondly a steroid can also be dissolved in the nutrient fluid perfusing the hippocampous slice. The steroid in the perfusion will influence the whole slice including the synapse under investigation.

[2] = Steroids tested by the inventors as agonist, blocker or antagonist to the sedative steroids (method not given)
Sprague-Dawley rats [3] = assay: EEG-threshold method for deep anaesthesia ("silent second"), continuous intravenous infusion; type: in vivo, rat; conditions: for Intercept of regression line (anaesthetic steroid dosage needed for SS at zero 3beta-hydroxy-5alpha-pregnan-20-one): FIG. 1 / FIG. 2; for Optimal dose rate (gives the lowest threshold dose): rats
Method: The present invention is based on experiments in vivo, performed to confirm the blocking effect of 3beta-hydroxy-5alpha-pregnan-20-one on 3alpha-hydroxy-5alpha-pregnan-20-one in a preliminary study. 3alpha-hydroxy-5alpha-pregnan-20-one dissolved in 20% cyclodextrin was given to male Sprague-Dawley rats in an i.v. infusion dose rate of close to 3.0 mg/kg/min. This is the optimal dose rate for 3alpha-hydroxy-5alpha-pregnan-20-one. 3alpha-hydroxy-5alpha-pregnan-20-one and 3beta-hydroxy-5alpha-pregnan-20-one were dissolved, 50/50%, in water solution containing cyclodextrin. The control solution only contained 3alpha-hydroxy-5alpha-pregnan-20-one. The amount of 3alpha-hydroxy-5alpha-pregnan-20-one needed to obtain silent second, the anaesthesia criteria, was 21% higher with the combined solution compared to 3alpha-hydroxy-5alpha-pregnan-20-one alone, showing an interaction between 3alpha-hydroxy-5alpha-pregnan-20-one and 3beta-hydroxy-5alpha-pregnan-20-one in vivo. There was no overlap between the effect of the combined solution and control solution of 3alpha-hydroxy-5alpha-pregnan-20-one.
In further studies, performed after the priority date, the present invention was tested in in vivo experiments in which the blocking effect of 3beta-hydroxy-5alpha-pregnan-20-one was assessed by investigating the dosage of 3alpha-hydroxy-5alpha-pregnan-20-one and 3alpha-hydroxy-5beta-pregnan-20-one needed to induce a deep anaesthesia in the presence of increasing amounts of 3beta-hydroxy-5alpha-pregnan-20-one. An EEG-threshold method for deep anaesthesia was used. The method is developed to determine the sensitivity in the central nervous system (CNS) to the depressant drugs, mainly intravenous anaesthetic agents. Drugs are administered into the tail vein by continuous intravenous infusion while an Electro-Encephalo-Gram (EEG) is recorded. The infusion was immediately stopped and infusion time recorded, when the first burst of EEG suppression for one second or more is noted, the threshold criterion for a deep anaethesia, the “silent second” (SS). The appearance of SS is considered as a deeper anaesthesia state than the loss of righting reflex. The threshold dose (mg/kg) is calculated by multiplying the time to obtain SS with the dose rate (mg/kg/min). The threshold doses of the tested drug indicates its relative anaesthetic potency. The threshold doses are also related to CNS excitability. An increase or decrease in CNS excitability can be measured by a change in threshold doses of anesthetics. The dose rates which give the lowest threshold dose is considered as the optimal dose rate. The optimal dose rate and anaesthetic threshold dosage for 3alpha-hydroxy-5alpha-pregnan-20-one and […] at several times and the optimal dose rate is close to 3.0 mg/kg/min for both 3alpha-hydroxy-5alpha-pregnan-20-one and 3alpha-hydroxy-5beta-pregnan-20-one. The anaesthetic threshold dosage is for 3alpha-hydroxy-5alpha-pregnan-20-one between 6.5 to 8.0 mg/kg and for 3alpha-hydroxy-5beta-pregnan-20-one between 9 to 11 mg/kg depending on the age of the rats and the solvent used.
3alpha-hydroxy-5alpha-pregnan-20-one and […] dissolved in 20% cyclodextrin were given to Sprague-Dawley rats in an intravenous infusion at the optimal dose rate. 3beta-hydroxy-5alpha-pregnan-20-one was also dissolved in a 20% cyclodextrin solution and given simultaneously in a dosage 100%, 123% and 143% of the 3alpha-hydroxy-5alpha-pregnan-20-one dosage (n=11) and 70%, 100%, 123% and 143% of the 3alpha-hydroxy-5beta-pregnan-20-one dosage (n=16). […] The correlation between the dosage 3beta-hydroxy-5alpha-pregnan-20-one given and the dosage of 3alpha-hydroxy-5alpha-pregnan-20-one and 3alpha-hydroxy-5beta-pregnan-20-one needed to obtain the criterion of SS is highly significant (FIG. 1 and FIG. 2).

Sprague-Dawley rats [4] = conditions: a result found by several groups and described in earlier reports; cited from earlier work

3beta-hydroxy-pregnenolone
Blocking of the effect of 3alpha-hydroxy-5alpha-pregnan-20-one on the signal/POPSP ([1]; local application): no blocking effect | Blocking of the effect of 3alpha-hydroxy-5beta-pregnan-20-one on the signal/POPSP ([1]; local application): no blocking effect | Effect as agonist, blocker or antagonist to the sedative steroids [2]: no effect either as an agonist or blocker or antagonist

CC(=O)[C@H]1CC[C@H]2[C@@H]3CC[C@H]4C[C@H](O)CC[C@]4(C)[C@H]3CC[C@]12C [3alpha-hydroxy-5alpha-pregnan-20-one, reference compound]
Intercept of regression line (anaesthetic steroid dosage needed for SS at zero 3beta-hydroxy-5alpha-pregnan-20-one) (Sprague-Dawley rats [3]): 6.9 mg/kg | Optimal dose rate (gives the lowest threshold dose) (Sprague-Dawley rats [3]; i.v. infusion): ~3.0 mg/kg/min | Reduction of the amplitude of the induced population spike ([1]; local application, FIG. 3): 45% | Effect on the signal transmitted over the synapse / amplitude of the POPSP ([1]; local application): inhibition of the signal transmitted over the synapse

CC(=O)[C@H]1CC[C@H]2[C@@H]3CC[C@@H]4C[C@H](O)CC[C@]4(C)[C@H]3CC[C@]12C [3alpha-hydroxy-5beta-pregnan-20-one, reference compound]
Intercept of regression line (anaesthetic steroid dosage needed for SS at zero 3beta-hydroxy-5alpha-pregnan-20-one) (Sprague-Dawley rats [3]): 9.1 mg/kg | Optimal dose rate (gives the lowest threshold dose) (Sprague-Dawley rats [3]; i.v. infusion): ~3.0 mg/kg/min | Effect on the signal transmitted over the synapse / amplitude of the POPSP ([1]; local application): inhibition of the signal transmitted over the synapse; also recorded: inhibits the amplitude of the POPSP

CC(=O)[C@H]1CC[C@H]2[C@@H]3CC[C@H]4C[C@@H](O)CC[C@]4(C)[C@H]3CC[C@]12C [3beta-hydroxy-5alpha-pregnan-20-one]
Correlation coefficient r: 3alpha-hydroxy-5alpha-pregnan-20-one dosage needed for SS vs 3beta-hydroxy-5alpha-pregnan-20-one dosage (Sprague-Dawley rats [3]; FIG. 1, p<0.001, df=9): 0.90 | Slope of regression line: 3alpha-hydroxy-5alpha-pregnan-20-one dosage needed for SS vs 3beta-hydroxy-5alpha-pregnan-20-one dosage (Sprague-Dawley rats [3]; FIG. 1, slope p<0.001 different from 0): 0.43 | Correlation coefficient r: 3alpha-hydroxy-5beta-pregnan-20-one dosage needed for SS vs 3beta-hydroxy-5alpha-pregnan-20-one dosage (Sprague-Dawley rats [3]; FIG. 2, P<0.001, df=14): 0.78 | Slope of regression line: 3alpha-hydroxy-5beta-pregnan-20-one dosage needed for SS vs 3beta-hydroxy-5alpha-pregnan-20-one dosage (Sprague-Dawley rats [3]; FIG. 2, slope p<0.001 different from 0): 0.46 | Effect on the anaesthetic effect of 3alpha-hydroxy-5beta-pregnan-20-one in vivo (Sprague-Dawley rats [3]; given simultaneously i.v. at 70%, 100%, 123% and 143% of the 3alpha-hydroxy-5beta-pregnan-20-one dosage, dose dependent): can block the effect; also recorded: decreased the anaesthetic potency | Effect on the anaesthetic/CNS depressing effect of 3alpha-hydroxy-5alpha-pregnan-20-one in vivo (Sprague-Dawley rats [3]; given simultaneously i.v. at 100%, 123% and 143% of the 3alpha-hydroxy-5alpha-pregnan-20-one dosage, dose dependent): can block the effect; also recorded: decreased the anaesthetic potency | Amount of 3alpha-hydroxy-5alpha-pregnan-20-one needed to obtain silent second, higher with combined solution compared to 3alpha-hydroxy-5alpha-pregnan-20-one alone (Sprague-Dawley rats [3]; preliminary study, 50/50% with 3alpha-hydroxy-5alpha-pregnan-20-one in cyclodextrin solution, i.v. infusion, male Sprague-Dawley rats): 21% | Effect by itself on signal transmission over the synapse ([1]; alone, up to micromolar range, not different from vehicle): no effect on signal transmission; also recorded: no effect by itself | Blocking of the effect of 3alpha-hydroxy-5alpha-pregnan-20-one on the signal/POPSP ([1]; local application): can be blocked; also recorded: totally inhibited | Blocking of the effect of 3alpha-hydroxy-5beta-pregnan-20-one on the signal/POPSP ([1]; local application): can be blocked; also recorded: can inhibit the effect | Blocking of the effect of 3alpha-hydroxy-5alpha-pregnan-20-one when perfused to the whole hippocampus slice ([1]; perfusion of whole slice): same blocking effect | Interaction with Muscimol (an agonist to GABA) on the GABA-A receptor ([1]; together with Muscimol, FIG. 5): does not interact with Muscimol | Effect by itself on CNS activities (Sprague-Dawley rats [4]): no effect on CNS activities

CC(=O)[C@H]1CC[C@H]2[C@@H]3CC[C@@H]4C[C@@H](O)CC[C@]4(C)[C@H]3CC[C@]12C [3beta-hydroxy-5beta-pregnan-20-one]
Blocking of the effect of 3alpha-hydroxy-5alpha-pregnan-20-one on the signal/POPSP ([1]; local application): no blocking effect | Blocking of the effect of 3alpha-hydroxy-5beta-pregnan-20-one on the signal/POPSP ([1]; local application): no blocking effect | Effect as agonist, blocker or antagonist to the sedative steroids [2]: no effect either as a blocker or as an antagonist

CC(=O)C1CCC2C3CC=C4CC(OS(=O)(=O)O)CCC4(C)C3CCC12C (stereo not shown) [Pregnenolone sulphate]
Blocking of the effect of 3alpha-hydroxy-5beta-pregnan-20-one on the signal/POPSP ([1]; local application): could neither block | Own effect on the signal in high micromolar concentrations ([1]; high micromolar concentrations): excitatory
